According to the NIST ThermoML archive (doi:10.1016/j.jct.2014.01.020):

Assay: xn = mol fraction of the nth substance listed
Details: Liquid; for mass density: Vibrating tube method; for viscosity: 101 kPa, Concentric cylinders viscometry

C1CCCCC1 [cyclohexane] + CCCCO
mass density [kg/m3]
Details	x2 = 0.1	x2 = 0.2	x2 = 0.3003	x2 = 0.4005	x2 = 0.4997	x2 = 0.6001	x2 = 0.6999	x2 = 0.7998	x2 = 0.8999
293.15 K, 100 kPa	779.5	781.4	783.9	786.6	789.7	793.1	796.8	800.7	805
293.15 K, 1000 kPa	780.2	782	784.5	787.3	790.3	793.7	797.4	801.3	805.6
293.15 K, 2000 kPa	781	782.9	785.3	788.1	791.1	794.5	798.2	802	806.3
293.15 K, 5000 kPa	783.5	785.3	787.7	790.5	793.4	796.9	800.4	804.3	808.5
293.15 K, 10000 kPa	787.3	789.2	791.6	794.3	797.2	800.5	804	807.9	812
293.15 K, 15000 kPa	791.1	792.8	795.2	797.8	800.8	804	807.5	811.3	815.4
293.15 K, 20000 kPa	794.5	796.3	798.6	801.3	804.2	807.4	810.8	814.5	818.6
303.15 K, 100 kPa	770.1	772	774.6	777.6	780.9	784.5	788.5	792.3	797.1
303.15 K, 1000 kPa	770.8	772.8	775.3	778.3	781.6	785.2	789.1	793.2	797.8
303.15 K, 2000 kPa	771.7	773.7	776.2	779.2	782.5	786	789.9	794.1	798.6
303.15 K, 5000 kPa	774.4	776.3	778.8	781.7	785	788.5	792.4	796.4	800.9
303.15 K, 10000 kPa	778.5	780.4	782.9	785.7	788.9	792.5	796.2	800.2	804.6
303.15 K, 15000 kPa	782.4	784.3	786.7	789.6	792.7	796.1	799.8	803.8	808.1
303.15 K, 20000 kPa	786.2	788	790.4	793.2	796.3	799.6	803.3	807.2	811.5
303.15 K, 30000 kPa	793.2	795	797.4	800.2	803.1	806.4	810	813.8	817.9
303.15 K, 40000 kPa	799.6	801.4	803.8	806.5	809.4	812.6	816.1	819.8	823.8
313.15 K, 100 kPa	760.4	762.5	765.2	768.4	771.8	775.7	779.8	784.3	789.1
313.15 K, 1000 kPa	761.3	763.3	766.1	769.2	772.7	776.5	780.6	785	789.8
313.15 K, 2000 kPa	762.2	764.3	767	770.1	773.6	777.4	781.5	785.9	790.7
313.15 K, 5000 kPa	765.1	767.1	769.7	772.8	776.2	780	784.1	788.4	793.1
313.15 K, 10000 kPa	769.5	771.5	774.1	777.1	780.5	784.1	788.1	792.4	797
313.15 K, 15000 kPa	773.6	775.6	778.2	781.2	784.4	788	791.9	796.1	800.6
313.15 K, 20000 kPa	777.7	779.5	782.1	785	788.3	791.8	795.6	799.8	804.2
313.15 K, 30000 kPa	785.1	787	789.4	792.3	795.4	798.9	802.6	806.6	811
313.15 K, 40000 kPa	791.9	793.7	796.2	799	802	805.3	809	812.9	817.1
313.15 K, 50000 kPa	798.3	800.1	802.5	805.1	808.1	811.4	815	818.8	822.9
313.15 K, 60000 kPa	804.2	806	808.4	810.9	813.8	817	820.5	824.4	828.3
323.15 K, 100 kPa	750.6	752.8	755.6	758.9	762.6	766.6	771.1	775.7	780.7
323.15 K, 1000 kPa	751.6	753.8	756.6	759.9	763.5	767.5	771.9	776.6	781.6
323.15 K, 2000 kPa	752.6	754.8	757.6	760.8	764.5	768.5	772.9	777.5	782.5
323.15 K, 5000 kPa	755.6	757.8	760.5	763.7	767.3	771.3	775.6	780.1	785.1
323.15 K, 10000 kPa	760.3	762.5	765.2	768.3	771.8	775.7	779.9	784.4	789.2
323.15 K, 15000 kPa	764.8	766.9	769.6	772.7	776.1	779.9	783.9	788.3	793.1
323.15 K, 20000 kPa	769	771.1	773.7	776.7	780.1	783.8	787.9	792.2	796.8
323.15 K, 30000 kPa	776.9	779	781.6	784.4	787.7	791.2	795.2	799.3	803.9
323.15 K, 40000 kPa	784.2	786.1	788.6	791.4	794.6	798.1	801.8	805.9	810.3
323.15 K, 50000 kPa	790.8	792.8	795.1	797.9	801	804.4	808	812	816.3
323.15 K, 60000 kPa	797.2	799	801.4	804.1	807	810.5	814	817.9	822.1
323.15 K, 70000 kPa	802.9	804.6	806.9	809.6	812.6	815.8	819.3	823.2	827.3
323.15 K, 80000 kPa	808.6	810.1	812.3	815	817.9	821.1	824.5	828.3	832.3
333.15 K, 100 kPa	740.7	743	745.9	749.4	753.1	757.4	762.1	767	772.4
333.15 K, 1000 kPa	741.7	744	746.9	750.3	754.1	758.4	763	767.9	773.3
333.15 K, 2000 kPa	742.8	745.1	748	751.4	755.2	759.4	764	768.9	774.2
333.15 K, 5000 kPa	746.1	748.3	751.1	754.5	758.2	762.4	766.9	771.8	777
333.15 K, 10000 kPa	751.1	753.3	756.1	759.4	763	767.1	771.5	776.2	781.3
333.15 K, 15000 kPa	755.9	758	760.8	764	767.5	771.5	775.8	780.4	785.4
333.15 K, 20000 kPa	760.5	762.5	765.2	768.4	771.8	775.7	780	784.5	789.4
333.15 K, 30000 kPa	768.9	770.8	773.4	776.4	779.8	783.6	787.6	792	796.7
333.15 K, 40000 kPa	776.5	778.3	780.8	783.8	787	790.7	794.6	798.8	803.4
333.15 K, 50000 kPa	783.5	785.2	787.7	790.6	793.7	797.2	801.1	805.2	809.7
333.15 K, 60000 kPa	790	791.7	794.1	797	800.1	803.4	807.1	811.2	815.6
333.15 K, 70000 kPa	796.1	797.7	800	802.9	805.8	809.2	812.9	816.8	821.2
333.15 K, 80000 kPa	801.9	803.3	805.7	808.4	811.3	814.6	818.3	822.1	826.3
333.15 K, 90000 kPa	807.3	808.7	810.9	813.7	816.5	819.8	823.3	827.2	831.3
333.15 K, 100000 kPa	812.4	813.8	816	818.7	821.5	824.7	828.1	831.9	836

viscosity [mPa·s]
Details	x2 = 0	x2 = 0.1073	x2 = 0.1991	x2 = 0.2998	x2 = 0.4006	x2 = 0.4997	x2 = 0.6001	x2 = 0.7001	x2 = 0.7997	x2 = 0.8996
293.15 K	0.98	0.997	1.042	1.11	1.277	1.462	1.69	1.95	2.243	2.576
303.15 K	0.824	0.837	0.87	0.924	1.038	1.17	1.337	1.528	1.747	1.998
313.15 K	0.701	0.708	0.731	0.772	0.855	0.95	1.074	1.218	1.382	1.573
323.15 K	0.593	0.596	0.613	0.659	0.704	0.776	0.868	0.99	1.106	1.255
333.15 K	0.522	0.522	0.535	0.565	0.605	0.657	0.723	0.8	0.889	1.011
